The results in this text go back to paper PMC3191909 (Journal of biomolecular screening, 2009).

In one assay the target is (UniProt Z9ZW91H0F0). Briefly: [3H]epibatidine radioligand competition SPA, Bt AChBP. It is filed as binding, Bolinus truncates. (In general: Loss of bound radioactivity is the signal in a displacement assay; it reports binding, not function.)
Another assay has as its target α-cobratoxin (Naja kaouthia, UniProt P01391). More on the design: species or system mice. To be noted: mouse, in vivo, iv.
For assay [1], the target named is T1, AChBP (Ac) (Aplysia californica, UniProt Q8WSF8). In words: [3H]epibatidine radioligand competition SPA, Ac AChBP. In kind it is binding.
Assay [2] concerns the target T1, AChBP (Ac). In words: biochemical. In kind it is binding.
For assay [3], the target named is T2, AChBP (Ls) (Lymnaea stagnalis, UniProt P58154). It is filed as binding. The following applies: read-out: Kd, [125I]α-Bungarotoxin.
T2 sequence (P58154 20-229): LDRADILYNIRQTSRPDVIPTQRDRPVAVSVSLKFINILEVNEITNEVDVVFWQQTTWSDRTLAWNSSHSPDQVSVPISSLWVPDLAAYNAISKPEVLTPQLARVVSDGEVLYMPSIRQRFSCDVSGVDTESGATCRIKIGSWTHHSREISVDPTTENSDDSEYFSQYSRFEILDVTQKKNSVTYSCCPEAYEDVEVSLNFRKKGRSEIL
The target of assay [4] is T2, AChBP (Ls). In kind it is binding. To be noted: read-out: Kd, [3H]Epibatidine.

Like-named read-outs stand apart in the source and are kept apart here.

Chain of α-cobratoxin (P01391 whole entry, looked up): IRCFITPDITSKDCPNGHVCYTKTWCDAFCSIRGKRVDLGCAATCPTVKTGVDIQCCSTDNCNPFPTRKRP
Chain of (UniProt Z9ZW91H0F0) (Z9ZW91H0F0 1-203): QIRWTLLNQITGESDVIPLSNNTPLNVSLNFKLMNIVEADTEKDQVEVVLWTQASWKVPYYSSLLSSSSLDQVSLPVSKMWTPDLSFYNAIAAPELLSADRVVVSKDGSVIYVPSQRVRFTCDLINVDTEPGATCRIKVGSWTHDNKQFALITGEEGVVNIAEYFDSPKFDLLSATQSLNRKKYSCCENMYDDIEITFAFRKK

By Kd is commonly meant the free concentration of one partner at which half of the binding sites on the other are occupied at equilibrium, for simple one-to-one binding. Turning to `COc1cc2c3cc1Oc1cc(ccc1O)C[C@@H]1c4c(cc(OC)c(O)c4Oc4ccc(cc4)C[C@@H]3N(C)CC2)CC[N+]1(C)C` [NSC36387, d-tubocurarine, reference compound], the Kd at (UniProt Z9ZW91H0F0) came out at 37.5 nM.
Turning to `c1ccc2c(CN3CCN(Cc4c[nH]c5ccccc45)CC3)c[nH]c2c1` [NSC42258], on α-cobratoxin, the “effect on survival time of mice (in words)” value is “can prolong the survival time”. Further, the Kd at AChBP (Ac) [1] came to 1150 nM; on AChBP (Ac) [2] it was 2910 nM.
Take `COc1cc2c(cc1OC)C13CCN4CC5=CCOC(CC(=O)O)C(C5CC41)C3N2` (centres unmarked) [NSC121865]: the Kd at AChBP (Ls) [3] is 75.9 nM; on AChBP (Ls) [4], 112 nM.
On the same counts, the results for `N#Cc1ccc(/C=C/C(=O)O)cc1` [NSC134754] are 404 nM and 793 nM.
